# Key:
# [1] = system: Histone deacetylase (HDAC); assay: HDAC inhibitory activity: Kac-H3 Western Blot in VCaP cells; assay type: cell-based; settings: 10 uM drug, 24 h, FIG. 5
# Protocol: (§1) The VCap cells are cultured in the 6-well plate. After treating the VCap cells with the drugs for 24 hours, acetylation levels of the tubulin in the cytoplasm and the H3 protein in the nucleus are examined by the western blot. An experiment process is as follows:
# The VCaP cells are spread in the 6-well plate. 5×10^5 cells are inoculated per well, and incubated overnight to make the cells stick to a wall. Then 10 uM of the drug is added to each well. The cells are collected after being incubated for 24 h. The EpiQuik Total Histone Extraction kit (Epigentek, USA) is used to extract the histones, and the Western Blot method is used to detect expression levels of Kac-H3 (localized cell nucleus) in the cells after adding the different drugs.
# VCaP cells = assay: Inhibiting effect on VCaP cell proliferation (MTS); assay type: cell-based; settings: 4 days treatment, FIG. 6; for cell proliferation inhibitory effect compared with positive control drug MDV3100: VCaP cells
# Protocol: Androgen-sensitive prostate cancer cell (VCaP cells) are cultured in a 96-well plate. The VCaP cells are able to proliferate in a medium supplemented with 10 nM of the DHT. After treating the cells with the drugs for 4 days, we measure the effects of the drugs on the proliferation of the prostate cancer cells.
# The VCaP cells are cultured by using 5% CSS and 1640 medium without phenol red, and inoculated in the 96-well plate. 1×10^4 cells are added to each well, and incubated overnight to make the cells stick to a wall. Different concentrations of the drugs are added on the second day. After treating the cells with the drugs for 4 days, cell viability is measured by the MTS kit (Promega, USA). To each well, 10% of an MTS reagent is added, and incubation continued for 2 hours. The absorbance value at […] is then measured by the multi-functional microplate reader. The Graphpad Prism software is used to draw a curve by using the drug concentration as an abscissa and using the absorbance value of the drug treatment/the absorbance value of the blank treatment cell as an ordinate.
# [2] = system: Histone deacetylase (HDAC); assay: HDAC inhibitory activity: Kac-tubulin Western Blot in VCaP cells; assay type: cell-based; settings: 10 uM drug, 24 h, FIG. 4
# Protocol: as §1
# The VCaP cells are spread in the 6-well plate. 5×10^5 cells are inoculated per well, and incubated overnight to make the cells stick to a wall. On the second day, 10 uM of the drug is added per well. After being incubated for 24 h, the cells are collected, and lysed to extract the cell total protein. The Western Blot method is used to detect the expression levels of Kac-tubilin (localized cytoplasm) in the cells after treating with the different drugs.
# AR-LBD (GST) = molecular target: T1, AR-LBD (GST) (Rattus norvegicus, UniProt P15207); assay: PolarScreen Androgen Receptor (AR) Competitor Assay, binding experiment of the antagonist and AR; settings: fluorescence polarization, incubated 6 hours, FIG. 1; read-out: IC50 of the drug and AR-LBD binding
# T1 construct: purchased Life technologies company, USA
# T1 sequence (P15207 651-882 limits assumed): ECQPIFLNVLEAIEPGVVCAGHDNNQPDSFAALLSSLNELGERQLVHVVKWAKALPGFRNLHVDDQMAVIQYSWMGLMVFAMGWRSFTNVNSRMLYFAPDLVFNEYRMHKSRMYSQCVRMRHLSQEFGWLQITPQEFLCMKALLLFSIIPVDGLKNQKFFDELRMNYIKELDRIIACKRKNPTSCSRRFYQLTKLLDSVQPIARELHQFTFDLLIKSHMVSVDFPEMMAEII
# Source text: PolarScreen™ Androgen Receptor (AR) Competitor Assay, Green kit (Life technologies company, USA) is used to test the affinity of the antagonist to AR-LBD (GST). The mechanism of the experiment is that the AR-LBD is combined with a small molecule fluormone tracer (Fluormone Tracer), and an antagonist added can competitively bind with AR-LBD so as to replace the fluormone tracer, and the replaced fluormone tracer […], and the value of the fluorescence polarization is inversely proportional to the number of the replaced tracers.
# A specific process is as follows: the drug is dissolved into 500 uM by using DMSO, and then diluted to 244 nM by double dilution concentration gradients in a 96-well plate. A 10 uL of a reaction system AR-LBD+Tracer is configured in a 384-well plate and 10 uL of the drug solution is added. The positive control is 10 uL of AR-LBD+Tracer with 10 uL of DHT added. The 384-well plate is wrapped by tin foil and incubated for 6 hours in the dark. The fluorescence polarization value is read on a multi-function microplate reader. Graphpad Prism software is used to draw a drug concentration as an abscissa, and the fluorescence polarization value is used as an ordinate for drawing a curve. […] Herein, the DHT, MDV3100, and ARN509 are positive controls.
# androgen receptor (AR) = molecular target: T2, androgen receptor (AR) (Homo sapiens, UniProt P10275); assay: Luciferase reporter gene experiment (MMTV-LUC + pSV-AR in 293T cells); assay type: cell-based; settings: 10 nM DHT, FIG. 2
# T2 construct: expressed in transfected cells; host or cells: 293T cells
# T2 sequence (P10275 1-920): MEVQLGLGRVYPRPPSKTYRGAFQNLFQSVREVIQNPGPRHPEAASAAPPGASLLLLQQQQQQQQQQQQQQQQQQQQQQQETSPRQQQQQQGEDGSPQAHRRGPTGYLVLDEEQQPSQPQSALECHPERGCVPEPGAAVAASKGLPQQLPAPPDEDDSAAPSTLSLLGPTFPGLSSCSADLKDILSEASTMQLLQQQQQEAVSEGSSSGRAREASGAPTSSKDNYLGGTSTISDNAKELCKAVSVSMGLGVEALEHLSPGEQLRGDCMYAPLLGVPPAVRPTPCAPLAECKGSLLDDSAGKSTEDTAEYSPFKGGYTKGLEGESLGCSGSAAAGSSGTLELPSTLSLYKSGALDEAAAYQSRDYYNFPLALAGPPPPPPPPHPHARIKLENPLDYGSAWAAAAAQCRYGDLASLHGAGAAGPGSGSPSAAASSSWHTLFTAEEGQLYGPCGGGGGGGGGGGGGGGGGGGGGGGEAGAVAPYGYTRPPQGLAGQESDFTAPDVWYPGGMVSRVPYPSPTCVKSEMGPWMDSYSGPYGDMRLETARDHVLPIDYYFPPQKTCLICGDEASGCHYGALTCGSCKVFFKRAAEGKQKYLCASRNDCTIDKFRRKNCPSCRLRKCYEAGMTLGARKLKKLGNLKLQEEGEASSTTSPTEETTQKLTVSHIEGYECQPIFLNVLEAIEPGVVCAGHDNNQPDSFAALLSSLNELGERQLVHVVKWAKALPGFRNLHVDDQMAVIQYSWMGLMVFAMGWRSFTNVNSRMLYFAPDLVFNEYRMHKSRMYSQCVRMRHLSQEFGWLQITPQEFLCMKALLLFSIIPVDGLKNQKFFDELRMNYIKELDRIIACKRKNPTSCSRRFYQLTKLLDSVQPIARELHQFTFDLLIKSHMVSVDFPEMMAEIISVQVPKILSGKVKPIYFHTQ
# Protocol: 293T cells are cultured in a 96-well plate. AR plasmids and luciferase genes with AR target promoters are co-transfected in the 293T cells. AR activates the target promoters to express luciferase, and the expression level of the luciferase is directly proportional to AR activation. Adding DHT to the cells can activate AR and express the luciferase, thus enhancing fluorescence signal detection. By detecting the fluorescent signal, it can be examined whether an added drug has AR antagonist activity.
# The luciferase reporter gene plasmid MMTV-LUC containing the androgen receptor (AR) target promoters and the plasmid pSV-AR expressing the androgen receptor (AR) are constructed. The 293T cells are inoculated in a 96-well plate, wherein each well containing 1×10^4 cells. The cells are incubated overnight to stick to the wall. On the second day, Lipofectamine® 3000 (Life technologies, USA) is used to transfect the plasmid into the cells. Each well is added with 180 ng of MMTV-LUC plasmid and 20 ng of pSV-AR plasmid. On the third day, each well is added with 10 nM of the DHT and the drugs of different concentrations of 1 nM, 10 nM, 100 nM, 1 uM, 10 uM, 25 uM, 50 uM respectively. The control is 10 nM of the DHT. On the fifth day, a luciferase reporter gene detection kit (Biyuntian company, China) is used to process the cells. 100 uL of cell lysate is added to the 96-well plate, and lyse for 20 min. Then centrifuging is performed at 4 degrees and 10000 g for 3 min. 50 uL of supernatant is taken and 100 uL of a luciferase detection reagent is added. After mixing, chemiluminescence is immediately detected on the multi-functional microplate reader. Graphpad Prism software is used to draw a curve by using the drug concentration as an abscissa and using drug fluorescence value/positive control fluorescence value as an ordinate. Herein MDV3100 is the positive control.
SMILES,H3 acetylation in the nucleus (HDAC inhibitory activity) [1],"inhibitory effect on the VCap cell proliferation, from high to low (VCaP cells)",cell proliferation inhibitory effect compared with positive control drug MDV3100 (VCaP cells),acetylation of the tubulin in the cytoplasm (HDAC inhibitory activity) [2],IC50 (AR-LBD (GST)) [µM],"antagonist effect on the AR, antagonistic ability from high to low (androgen receptor (AR))"
"CC1(C)C(=O)N(c2ccc(C#N)c(C(F)(F)F)c2)C(=S)N1c1ccc(C(=O)NO)c(F)c1 [Zeta 32, 4-(3-(4-cyano-3-(trifluoromethyl)phenyl)-5,5-dimethyl-4-oxo-2-thioimidazolidine-1-yl)-2-fluoro-N-hydroxybenzamide]",superior,Zeta55>Zeta32>Zeta33>Zeta34>Zeta57,better than that of the positive control drug MDV3100,superior,25.1,Zeta32>Zeta55>Zeta34>Zeta57>Zeta33
"CC1(C)C(=O)N(c2cnc(C#N)c(C(F)(F)F)c2)C(=S)N1c1ccc(C(=O)NO)c(F)c1 [Zeta 33, 4-(3-(6-cyano-5-(trifluoromethyl)pyridin-3-yl)-5,5-dimethyl-4-oxo-2-thioimidazolidine-1-yl)-2-fluoro-N-hydroxybenzamide]",–,Zeta55>Zeta32>Zeta33>Zeta34>Zeta57,better than that of the positive control drug MDV3100,–,27.5,Zeta32>Zeta55>Zeta34>Zeta57>Zeta33
"CC1(C)C(=O)N(c2ccc(C#N)c(Cl)c2)C(=S)N1c1ccc(C(=O)NO)c(F)c1 [Zeta 34, 4-(3-(3-chloro-4-cyanophenyl)-5,5-dimethyl-4-oxo-2-thioimidazolidine-1-yl)-2-fluoro-N-hydroxybenzamide]",superior,Zeta55>Zeta32>Zeta33>Zeta34>Zeta57,–,–,–,Zeta32>Zeta55>Zeta34>Zeta57>Zeta33
"N#Cc1ncc(N2C(=O)C3(CCC3)N(c3ccc(C(=O)NO)c(F)c3)C2=S)cc1C(F)(F)F [Zeta 57, 4-(7-(6-cyano-5-(trifluoromethyl)pyridin-3-yl)-8-oxo-6-thio-5,7-diazaspiro[3.4]octane-5-yl)-2-fluoro-N-hydroxybenzamide]",superior,Zeta55>Zeta32>Zeta33>Zeta34>Zeta57,–,–,–,Zeta32>Zeta55>Zeta34>Zeta57>Zeta33

# From patent US12122760B2, “Compound, composition, and use thereof in preparation of drug” (CHANGSHA ZEDA MEDICAL TECH. CO., LTD, priority 2019, dated 2024)
